One test deals with 5-HT6 (Homo sapiens, UniProt P50406). The test can be described thus: Radioligand binding selectivity, 5-HT6. An excerpt: Similarly, Ki for the mu, kappa and delta opioids, serotonin, dopamine, adrenergic, mucarinic, and histamine receptors, as well as binding to the norepinephrine transporter, sodium channel, chloride channel, and calcium channel may be determined using membranes expressing the desired receptor/transporter/channels and appropriate corresponding radioligand competitor molecules.

The test system of the next test is Male Sprague-Dawley rats. Nature of the test: Rat dural plasma protein extravasation (PPE) model, oral dosing. It is filed as in vivo. On the procedure: All test compounds are prepared in a vehicle solution containing 20% Captisol in 25 mM phosphate buffer (pH 2.0). The positive control compound, sumatriptan, is dissolved in saline. Male Sprague-Dawley rats from Harlan Laboratories (250 to 350 g), that have been fasted overnight, are dosed with test compound, sumatriptan or vehicle by oral gavage (2 mL/kg). Fifty min. post-dose the rats are anesthetized with Nembutal (60 mg/kg, ip) and placed in a stereotaxic frame with the incisor bar set at −2.5 mm. Following a mid-line sagittal scalp incision, 2 pairs of bilateral holes were drilled through the skull (3.2 mm posteriorly, 1.8 and 3.8 mm laterally, all coordinates referenced to bregma). Pairs of stainless steel stimulating electrodes (Rhodes Medical Systems Inc), insulated except at the tips, are lowered through the holes in both hemispheres to a depth of 9.2 mm below the dura.
A solution of fluoroscein isothiocyanate (FITC) dye-labeled bovine serum albumin (BSA) (FITC-BSA) (20 mg/kg, iv), is injected into the femoral vein 2 minutes prior to electrical stimulation of the trigeminal ganglion to function as the marker for protein extravasation. Sixty minutes following dosing with test compound or vehicle, the left trigeminal ganglion is electrically stimulated for 5 minutes at a current intensity of 1.0 mA (5 Hz, 5 minutes duration).
Five minutes following stimulation, the rats are killed by exsanguination with 40 mL of saline which also rinses residual FITC/BSA out of the blood vessels. The top of the skull is removed to collect the dural membranes. The membrane samples are removed from both hemispheres, rinsed with water, and spread flat on microscope slides. The slides are dried for 15 minutes on a slide warmer and cover-slipped with a 70% glycerol/water solution.
A fluorescence microscope equipped with a grating monochromator and a spectrophotometer is used to quantify the amount of FITC-BSA dye in each dural sample. The microscope is equipped with a motorized stage interfaced with a personal computer. This facilitates the computer-controlled movement of the stage, with fluorescence measurements at 25 points (500 μm steps) on each dural sample. The extravasation induced by electrical stimulation of the trigeminal ganglion is an ipsilateral effect (that is occurs only on the side of the dura in which the trigeminal ganglion is stimulated). This allows the other (unstimulated) half of the dura to be used as a control. The extravasation ratio (that is the ratio of the amount of extravasation in the dura from the stimulated side compared to the unstimulated side) is calculated. Animals dosed with vehicle alone or an ineffective dose of the test compound have an extravasation ratio of approximately 2, while totally effective treatments result in a ratio of approximately 1.
Results are expressed as mean values with standard errors of the mean (±SEM). All statistical evaluations are conducting utilizing ANOVA followed by comparison to the control group by Dunnett's Method. Statistical significance is assumed when p<0.05. Statistical analyses are performed using JMP statistical analysis software (SAS Research Institute, version 6.0.2).

Marks after values point to notes of the source that are not given here.

Chain of 5-HT6 (P50406 whole entry, species assumed): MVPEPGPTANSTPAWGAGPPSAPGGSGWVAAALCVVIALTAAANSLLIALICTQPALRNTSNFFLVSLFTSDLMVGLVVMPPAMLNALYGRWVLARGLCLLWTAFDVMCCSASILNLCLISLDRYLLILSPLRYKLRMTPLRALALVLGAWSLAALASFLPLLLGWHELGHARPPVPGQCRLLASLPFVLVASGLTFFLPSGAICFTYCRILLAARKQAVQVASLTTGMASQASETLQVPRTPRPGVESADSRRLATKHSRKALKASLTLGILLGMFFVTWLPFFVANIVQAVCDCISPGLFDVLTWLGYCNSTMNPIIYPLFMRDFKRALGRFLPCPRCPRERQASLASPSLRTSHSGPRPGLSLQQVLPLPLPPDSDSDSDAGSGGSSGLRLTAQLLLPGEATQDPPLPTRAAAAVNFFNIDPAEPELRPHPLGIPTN

By Ki is commonly meant the dissociation constant of the complex between target and ligand, obtained from inhibition or displacement. The low end stands for a stronger hold on the target, the high end for a looser hold on the target. On to `O=C(O)C(O)C(O)C(=O)O.OCc1nn(-c2ncccc2F)cc1CN1CCC2(CC1)OCC(F)(F)c1cc(Cl)sc12` [Example 53, [4-[(2-Chloro-4,4-difluoro-spiro[5H-thieno[2,3-c]pyran-7,4′-piperidine]-1′-yl)methyl]-1-(3-fluoro-2-pyridyl)pyrazol-3-yl]methanol (L)-Tartrate], for which, on 5-HT6, the inhibition constant (Ki) was > 5.83 µM.
As to `Cc1nn(-c2ncccc2CO)cc1CN1CCC2(CC1)OCC(F)(F)c1cc(Cl)sc12` [Example 62, [2-[4-[(2-Chloro-4,4-difluoro-spiro[5H-thieno[2,3-c]pyran-7,4′-piperidine]-1′-yl)methyl]-3-methyl-pyrazol-1-yl]-3-pyridyl]methanol], the “Extravasation Ratio (mean)” value with Male Sprague-Dawley rats (0.1 mg/kg po) is recorded as 1.83; in the test on Male Sprague-Dawley rats (1.0 mg/kg po), 1.44*; with Male Sprague-Dawley rats (10.0 mg/kg po) it was 1.20*; with Male Sprague-Dawley rats (30.0 mg/kg po) it was 1.14*. In addition, the blockade of extravasation entry in the test on Male Sprague-Dawley rats (oral dosing) is reported as “effectively block extravasation in a dose dependent manner”.

These data come from US8232289B2, “Spiropiperidine compounds as ORL-1 receptor antagonists” (Eli Lilly and Company, priority 2009, dated 2012).
